According to ChEMBL document CHEMBL1240317, “Probing cell-division phenotype space and Polo-like kinase function using small molecules” (Nat Chem Biol, 2006):
Active and inactive are the calls of the source. No rule for the calls is given here.

How the values were obtained:
Type in all cases: functional, cell-based
Conditions in all cases: Chlorocebus aethiops
BSC-1 [1] = experiment: Induction of reduced mitotic index in african green monkey BSC1 cells at 20 uM after 4 hrs by immunocytochemistry
BSC-1 [2] = experiment: Induction of deffects in mitotic spindle in african green monkey BSC1 cells at 20 uM after 4 hrs by immunocytochemistry
BSC-1 [3] = experiment: Induction of severe microtubule disruption in african green monkey BSC1 cells at 20 uM after 4 hrs by immunocytochemistry

Row | SMILES | Activity (BSC-1 [1]) | Activity (BSC-1 [2]) | Activity (BSC-1 [3])
1 | OCC1CCCN1c1nccc(Nc2ccc3c(c2)OCO3)n1 (centres undefined) | Active | Active | Active
2 | CC(C)CC(CO)Nc1ncc([N+](=O)[O-])c(Nc2ccc3ncsc3c2)n1 (centres undefined) | Active | Active | Active
3 | NC(=O)c1ccccc1Nc1nc(NC2CCCCCC2)ncc1[N+](=O)[O-] | Active | Active | Active
4 | NC(=O)c1ccccc1Nc1nc(NCc2cccs2)ncc1[N+](=O)[O-] | Active | Active | Active
5 | CC(=O)Nc1ccc(Nc2ncc([N+](=O)[O-])c(Nc3ccc(Cl)c(Cl)c3)n2)cc1 | Active | Active | Active
6 | O=[N+]([O-])c1cnc(Nc2ccc(Cl)c(Cl)c2)nc1Nc1ccc2[nH]ccc2c1 | Active | Active | Active
7 | O=C(c1ccccc1)c1ccccc1Nc1nc(Nc2ccc(Cl)c(Cl)c2)ncc1[N+](=O)[O-] | Active | Active | Active
8 | c1ccc2cc(Nc3nccc(Nc4ccc5c(c4)OCO5)n3)ccc2c1 | Active | Active | Active
9 | CCN(CC)CCCC(C)Nc1ncc([N+](=O)[O-])c(Nc2ccc3ncsc3c2)n1 (centres undefined) | Active | Active | Active
10 | CCCCNc1nc(Nc2ccc3ccccc3c2)ncc1[N+](=O)[O-] | Active | Active | Active
11 | CCCCNc1nc(Nc2ccc3[nH]ccc3c2)ncc1[N+](=O)[O-] | Active | Active | Active
12 | CC(C)(Nc1ncc([N+](=O)[O-])c(Nc2ccccc2C(N)=O)n1)c1ccccc1 |  |  | Active
13 | Cc1cc(Nc2cc(C3CC3)[nH]n2)nc(Nc2ccc(CC#N)cc2)n1 |  |  | Active
14 | COc1cc(Nc2ncc([N+](=O)[O-])c(Nc3ccccc3C(N)=O)n2)cc(OC)c1OC |  |  | Active
15 | O=[N+]([O-])c1cnc(Nc2ccncc2)nc1NC1CCCC1 |  |  | Active
16 | CC(=O)Nc1ccc(Nc2ccnc(Nc3ccc(C(C)(C)C)cc3)n2)cc1 |  |  | Active
17 | CN1CCN(c2ccnc(Cl)n2)CC1 | Active | Active | Active
18 | O=[N+]([O-])c1cnc(Cl)nc1NC1CCCC1 |  | Active | 
19 | O=[N+]([O-])c1cnc(NC2CCCCCC2)nc1Nc1ccc2ncsc2c1 | Active | Active | Active
20 | CN1CCN(c2nccc(Nc3ccc4c(c3)OCO4)n2)CC1 | Active | Active | Active
21 | O=[N+]([O-])c1cnc(Nc2ccc3[nH]ccc3c2)nc1NC1CCCC1 | Active | Active | Active
22 | O=[N+]([O-])c1cnc(Nc2ccc3ccccc3c2)nc1Nc1ccc(Cl)c(Cl)c1 | Active | Active | Active
23 | CN1CCN(c2ccc(Nc3ncc([N+](=O)[O-])c(Nc4ccc(Cl)c(Cl)c4)n3)cc2)CC1 | Active | Active | Active
24 | CC(=O)Nc1ccc(Nc2ccnc(NCc3cccs3)n2)cc1 | Active | Active | Active

Row | SMILES | Activity (BSC-1 [1]) | Activity (BSC-1 [2]) | Activity (BSC-1 [3])
25 | CC(=O)Nc1ccc(Nc2ncc([N+](=O)[O-])c(Nc3ccc4ncsc4c3)n2)cc1 | Active | Active | Active
26 | O=C(c1ccccc1)c1ccccc1Nc1nc(Nc2ccc3ncsc3c2)ncc1[N+](=O)[O-] | Active | Active | Active
27 | CC(C)(C)c1ccc(Nc2nccc(-n3ccnc3-c3ccccc3)n2)cc1 |  | Active | 
28 | CC(=O)Nc1ccc(Nc2ccnc(NC(CO)Cc3ccccc3)n2)cc1 (centres undefined) | Active | Active | Active
29 | OCC(Cc1ccccc1)Nc1nccc(Nc2ccc3c(c2)OCO3)n1 (centres undefined) | Active | Active | Active
30 | CC(=O)Nc1ccc(Nc2ncc([N+](=O)[O-])c(Nc3ccccc3C(N)=O)n2)cc1 |  | Active | 
31 | CC(C)(C)c1ccc(Nc2ncc([N+](=O)[O-])c(NC3CCCC3)n2)cc1 | Active | Active | Active
32 | CCCCNc1ncc([N+](=O)[O-])c(Nc2ccccc2C(N)=O)n1 | Active | Active | Active
33 | O=[N+]([O-])c1cnc(-n2ccnc2-c2ccccc2)nc1NC1CCCC1 | Active | Active | Active
34 | CN1CCN(c2ccnc(Sc3cccc(Cl)c3)n2)CC1 |  | Active | 
35 | Clc1ccc(Nc2nccc(Nc3ccc4c(c3)OCO4)n2)cc1Cl | Active | Active | Active
36 | O=C(c1ccccc1)c1ccccc1Nc1nc(Nc2ccc3ccccc3c2)ncc1[N+](=O)[O-] | Active | Active | Active
37 | O=[N+]([O-])c1cnc(NC2CCCCCC2)nc1Nc1ccc(Cl)c(Cl)c1 | Active | Active | Active
38 | CCCCNc1ncc([N+](=O)[O-])c(Nc2ccccc2C(=O)c2ccccc2)n1 | Active | Active | Active
39 | NC(=O)c1ccccc1Nc1nc(NCCCN2CCCC2=O)ncc1[N+](=O)[O-] | Active | Active | Active
40 | CC(=O)Nc1ccc(Nc2ccnc(Nc3ccncc3)n2)cc1 | Active | Active | Active
41 | c1ccc2cc(Nc3nccc(Nc4ccc5c(c4)CCC5)n3)ccc2c1 | Active | Active | Active
42 | CN1CCN(c2ccc(Nc3ncc([N+](=O)[O-])c(Nc4ccccc4C(N)=O)n3)cc2)CC1 |  |  | Active
43 | c1ccc(-c2nccn2-c2ccnc(Nc3ccc4ncsc4c3)n2)cc1 |  |  | Active
44 | O=[N+]([O-])c1cnc(NC(CO)Cc2ccccc2)nc1Nc1ccc2ncsc2c1 (centres undefined) | Active | Active | Active
45 | CN1CCN(c2ncc([N+](=O)[O-])c(Nc3ccccc3C(=O)c3ccccc3)n2)CC1 | Active | Active | Active
46 | O=[N+]([O-])c1cnc(NCc2cccs2)nc1Nc1ccc(Cl)c(Cl)c1 | Active | Active | Active
47 | CC(=O)Nc1ccc(Nc2nccc(Nc3ccc4[nH]ccc4c3)n2)cc1 |  |  | Active
48 | c1cc(Nc2nccc(Nc3ccc4c(c3)CCC4)n2)ccn1 | Active | Active | Active

Row | SMILES | Activity (BSC-1 [1]) | Activity (BSC-1 [2]) | Activity (BSC-1 [3])
49 | O=C(c1ccccc1)c1ccccc1Nc1nc(NC2CCCC2)ncc1[N+](=O)[O-] | Active | Active | Active
50 | O=[N+]([O-])c1cnc(Nc2ccc3[nH]ccc3c2)nc1Nc1ccc2ncsc2c1 |  | Active | 
51 | O=C(c1ccccc1)c1ccccc1Nc1nc(NCc2cccs2)ncc1[N+](=O)[O-] | Active |  | 
52 | c1cc(Nc2ccc3c(c2)OCO3)nc(Nc2ccc3ncsc3c2)n1 |  |  | Active
53 | Clc1ccc(Nc2nccc(Nc3ccc4c(c3)CCC4)n2)cc1Cl |  | Active | 
54 | O=[N+]([O-])c1cnc(Nc2ccc3ccccc3c2)nc1Nc1ccc2ncsc2c1 |  | Active | 
55 | CC(=O)Nc1ccc(Nc2ncc([N+](=O)[O-])c(NC3CCCC3)n2)cc1 | Active |  | 
56 | CC(C)(C)c1ccc(Nc2ncc([N+](=O)[O-])c(Nc3ccccc3C(N)=O)n2)cc1 |  |  | Active
57 | O=[N+]([O-])c1cnc(-n2ccnc2-c2ccccc2)nc1Nc1ccc2ncsc2c1 |  | Active | 
58 | O=[N+]([O-])c1cnc(Nc2ccc(Cl)c(Cl)c2)nc1Nc1ccc2ncsc2c1 |  | Active | 
59 | O=[N+]([O-])c1cnc(NC2CCCC2)nc1Nc1ccc2[nH]ccc2c1 | Active | Active | Active
60 | O=[N+]([O-])c1cnc(NC(CO)Cc2ccccc2)nc1Nc1ccc(Cl)c(Cl)c1 (centres undefined) | Active | Active | Active
61 | O=C(c1ccccc1)c1ccccc1Nc1nc(NC(CO)Cc2ccccc2)ncc1[N+](=O)[O-] (centres undefined) |  | Active | 
62 | c1ccc(-c2nccn2-c2ccnc(NC3CCCC3)n2)cc1 | Active | Active | Active
63 | CC(=O)Nc1ccc(Nc2ccnc(Nc3ccc4ccccc4c3)n2)cc1 |  |  | Active
64 | O=[N+]([O-])c1cnc(Nc2ccc3ncsc3c2)nc1Nc1ccc(Cl)c(Cl)c1 | Active | Active | Active
65 | CC(C)(C)c1ccc(Nc2ncc([N+](=O)[O-])c(Nc3ccc4ncsc4c3)n2)cc1 |  | Active | 
66 | O=[N+]([O-])c1cnc(Nc2cccc3ncccc23)nc1Nc1ccc2ncsc2c1 |  |  | Active
67 | CC(=O)Nc1ccc(Nc2ccnc(Nc3ccc(Cl)cc3Cl)n2)cc1 |  |  | Active
68 | CC(=O)Nc1ccc(Nc2ccnc(Nc3ccc4ncsc4c3)n2)cc1 |  |  | Active
69 | O=C(c1ccccc1)c1ccccc1Nc1nc(NCCCN2CCCC2=O)ncc1[N+](=O)[O-] |  | Active | 
70 | COc1ccc(Nc2ncc([N+](=O)[O-])c(Nc3ccc4[nH]ccc4c3)n2)cc1 |  |  | Active
71 | CCCCNc1nc(Nc2ccc(NC(C)=O)cc2)ncc1[N+](=O)[O-] |  | Active | 
72 | COc1cc(Nc2ncc([N+](=O)[O-])c(Nc3ccc4c(c3)OCO4)n2)cc(OC)c1OC |  |  | Active
